Measured values published in ChEMBL document CHEMBL3804780, “Protective effect of novel substituted nicotine hydrazide analogues against hypoxic brain injury in neonatal rats via inhibition of caspase” (Bioorg Med Chem Lett, 2016).
pIC50: −log10 of the molar value. Active and inactive are the calls of the source. The rule behind the calls is not given here.

What was measured:
[1] = target: T1, Caspase-3 (Homo sapiens, UniProt P42574); experiment: Inhibition of His-tagged human recombinant caspase 3 expressed in Escherichia coli using acetyl-Asp-Glu-Val-Asp-7- amido-4-methylcoumarin (Ac-DEVD-AMC) as substrate by fluorimetric assay
T1 sequence (P42574 whole entry): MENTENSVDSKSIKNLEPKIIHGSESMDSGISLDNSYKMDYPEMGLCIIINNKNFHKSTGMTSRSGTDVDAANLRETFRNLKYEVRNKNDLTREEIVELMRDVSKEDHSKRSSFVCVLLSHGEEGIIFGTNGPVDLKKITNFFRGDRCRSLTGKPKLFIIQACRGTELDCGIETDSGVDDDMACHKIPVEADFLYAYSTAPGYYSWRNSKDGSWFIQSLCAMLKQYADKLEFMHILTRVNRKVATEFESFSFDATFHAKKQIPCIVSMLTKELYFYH

[2] = target: T2, Caspase-7 (Homo sapiens, UniProt P55210); experiment: Inhibition of His-tagged human recombinant caspase 7 expressed in Escherichia coli using acetyl-Asp-Glu-Val-Asp-7- amido-4-methylcoumarin (Ac-DEVD-AMC) as substrate by fluorimetric assay
T2 sequence (P55210 whole entry): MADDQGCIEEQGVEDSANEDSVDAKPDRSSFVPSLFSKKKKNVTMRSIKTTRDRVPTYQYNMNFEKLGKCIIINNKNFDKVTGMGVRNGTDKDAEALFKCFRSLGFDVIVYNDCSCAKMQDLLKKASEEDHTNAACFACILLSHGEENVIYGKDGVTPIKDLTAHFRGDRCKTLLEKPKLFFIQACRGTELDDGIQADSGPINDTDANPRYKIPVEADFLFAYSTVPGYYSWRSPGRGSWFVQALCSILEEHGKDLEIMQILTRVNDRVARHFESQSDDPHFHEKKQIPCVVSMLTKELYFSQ

[3] = system: Rattus norvegicus; experiment: Neuroprotective activity in hypoxic-ischemic neonatal Sprague-Dawley rat brain assessed as reduction in interstitial edema at 30 mg/kg, ip administered 15 mins prior to examination measured after 48 hrs by hematoxylin/eosin staining based microscopic analysis; format: functional, organism-based
[4] = system: Rattus norvegicus; experiment: Neuroprotective activity in hypoxic-ischemic ip dosed neonatal Sprague-Dawley rat brain assessed as increase in CAT levels administered 15 mins prior to examination measured after 48 hrs by microplate reader based method; format: functional, organism-based
[5] = system: Rattus norvegicus; experiment: Neuroprotective activity in hypoxic-ischemia-induced neonatal Sprague-Dawley rat brain assessed as reduction brain infarction at 10 mg/kg, ip administered 15 mins prior to examination by microscopic analysis; format: functional, organism-based
[6] = system: Rattus norvegicus; experiment: Neuroprotective activity in hypoxic-ischemia-induced neonatal Sprague-Dawley rat brain assessed as reduction brain infarction at 20 mg/kg, ip administered 15 mins prior to examination by microscopic analysis; format: functional, organism-based
[7] = system: Rattus norvegicus; experiment: Neuroprotective activity in hypoxic-ischemic ip dosed neonatal Sprague-Dawley rat brain assessed as increase in T-AOC levels administered 15 mins prior to examination measured after 48 hrs by microplate reader based method; format: functional, organism-based
[8] = organism: Rattus norvegicus; settings: Sprague-Dawley, Brain, 30 mg/kg
Description: Neuroprotective activity in hypoxic-ischemic neonatal Sprague-Dawley rat brain assessed as inhibition of elevated caspase 3 expression levels at 30 mg/kg, ip administered 15 mins prior to examination measured after 48 hrs by Western blot analysis

[9] = system: Rattus norvegicus; experiment: Neuroprotective activity in hypoxic-ischemic Sprague-Dawley rat brain assessed as reduction in disruption of cell organelles at 30 mg/kg, ip administered 15 mins prior to examination measured after 48 hrs by transmission electron microscopic analysis; format: functional, organism-based
[10] = system: Rattus norvegicus; experiment: Neuroprotective activity in hypoxic-ischemic ip dosed neonatal Sprague-Dawley rat brain assessed as decrease in MDA levels administered 15 mins prior to examination measured after 48 hrs by thiobarbituric acid method; format: functional, organism-based
[11] = system: Rattus norvegicus; experiment: Neuroprotective activity in hypoxic-ischemic Sprague-Dawley rat brain assessed as regular shape of nucleus at 30 mg/kg, ip administered 15 mins prior to examination measured after 48 hrs by transmission electron microscopic analysis; format: functional, organism-based
[12] = system: Rattus norvegicus; experiment: Neuroprotective activity in hypoxic-ischemic-induced neonatal Sprague-Dawley rat brain assessed as reduction brain infarction at 30 mg/kg, ip administered 15 mins prior to examination by microscopic analysis; format: functional, organism-based
[13] = system: Rattus norvegicus; experiment: Neuroprotective activity in hypoxic-ischemic neonatal Sprague-Dawley rat brain assessed as distribution of neurons in cortex at 30 mg/kg, ip administered 15 mins prior to examination measured after 48 hrs by hematoxylin/eosin staining based microscopic analysis; format: functional, organism-based
[14] = system: Rattus norvegicus; experiment: Neuroprotective activity in hypoxic-ischemic ip dosed neonatal Sprague-Dawley rat brain assessed as increase in GSH-Px levels administered 15 mins prior to examination measured after 48 hrs by microplate reader based method; format: functional, organism-based
[15] = system: Rattus norvegicus; experiment: Neuroprotective activity in hypoxic-ischemic ip dosed neonatal Sprague-Dawley rat brain assessed as increase in SOD levels administered 15 mins prior to examination measured after 48 hrs by microplate reader based method; format: functional, organism-based

Row | SMILES | pIC50 [1] | pIC50 [2] | other results
1 | Cc1nc(-c2ccccc2)ccc1C(=O)N/N=C1\C(=O)N(C)c2ccccc21 | 3.34 |  | 
2 | Cc1nc(-c2cccc(Cl)c2)ccc1C(=O)N/N=C1\C(=O)N(C)c2ccccc21 |  | < 3.70 | 
3 | COc1cccc(-c2ccc(C(=O)N/N=C3\C(=O)N(C)c4ccccc43)c(C)n2)c1 | 3.26 | < 3.70 | 
4 | Cc1ccc(-c2ccc(C(=O)N/N=C3\C(=O)N(C)c4ccccc43)c(C)n2)cc1 | 3.43 |  | 
5 | Cc1nc(-c2ccc(F)cc2)ccc1C(=O)N/N=C1\C(=O)N(C)c2ccccc21 |  | < 3.70 | Activity [3]: Active; Activity [4]: Dose-dependent effect; Activity [5]: Active; Activity [6]: Active; Activity [7]: Dose-dependent effect; inhibition [8]: Active; Activity [9]: Active; Activity [10]: Active; Activity [11]: Active; Activity [12]: Active; Activity [13]: Active; Activity [14]: Dose-dependent effect; Activity [15]: Dose-dependent effect
6 | COc1ccc(-c2ccc(C(=O)N/N=C3\C(=O)N(C)c4ccccc43)c(C)n2)cc1OC | 3.22 | < 3.70 | 
7 | CC(=O)N[C@@H](CC(=O)O)C(=O)N[C@@H](CCC(=O)O)C(=O)N[C@H](C(=O)N[C@H](C=O)CC(=O)O)C(C)C |  | 7.22 | 
8 | COc1ccccc1-c1ccc(C(=O)N/N=C2\C(=O)N(C)c3ccccc32)c(C)n1 | 3.26 | < 3.70 | 
9 | COc1ccc(-c2ccc(C(=O)N/N=C3\C(=O)N(C)c4ccccc43)c(C)n2)cc1 | 3.31 | < 3.70 | 
10 | COc1cc(-c2ccc(C(=O)N/N=C3\C(=O)N(C)c4ccccc43)c(C)n2)cc(OC)c1OC | 3.17 |  | 

More lines, main results first:

Row | pIC50 [1] | pIC50 [2] | SMILES | other results
11 | 3.53 | < 3.70 | Cc1nc(-c2ccccc2[N+](=O)[O-])ccc1C(=O)N/N=C1\C(=O)N(C)c2ccccc21 | 
12 | 3.89 |  | Cc1nc(-c2cccc(Br)c2)ccc1C(=O)N/N=C1\C(=O)N(C)c2ccccc21 | 
13 | 3.51 |  | Cc1cccc(-c2ccc(C(=O)N/N=C3\C(=O)N(C)c4ccccc43)c(C)n2)c1 | 
14 | 3.46 |  | Cc1ccccc1-c1ccc(C(=O)N/N=C2\C(=O)N(C)c3ccccc32)c(C)n1 | 
15 | 3.91 |  | Cc1nc(-c2ccc(Br)cc2)ccc1C(=O)N/N=C1\C(=O)N(C)c2ccccc21 | 
16 | 3.69 |  | Cc1nc(-c2ccc([N+](=O)[O-])cc2)ccc1C(=O)N/N=C1\C(=O)N(C)c2ccccc21 | 
17 | 3.88 |  | Cc1nc(-c2ccccc2Br)ccc1C(=O)N/N=C1\C(=O)N(C)c2ccccc21 | 
18 | 3.56 |  | Cc1nc(-c2cccc([N+](=O)[O-])c2)ccc1C(=O)N/N=C1\C(=O)N(C)c2ccccc21 | 
